From patent US20250122225A1, “MASP-2 INHIBITORS AND METHODS OF USE” (Omeros Corporation, priority 2023, published 2025)
Where a name gives a salt, the structure may show the parent alone.

Columns and labels:
MASP-2 (CCP1-CCP2-SP) = biological target: T1, MASP-2 (CCP1-CCP2-SP) (Homo sapiens, UniProt O00187); test: Enzymatic assay for MASP-2 inhibitory activity (fluorogenic substrate); assay type: biochemical
T1 construct: 15 μL of Enzyme MASP-2 (CCP1-CCP2-SP) in Assay Buffer
Method in brief: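 Fluorescence was normalized between no-enzyme and DMSO-only controls to derive % activity, with IC50 taken as equivalent to Ki except for tight-binding inhibitors. Reactions ran 20 min at room temperature in HEPES pH 7.4/NaCl/Tween 20 buffer, using the C2-derived fluorogenic substrate, before acetic acid stop.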

human α-thrombin = biological target: T2, human α-thrombin (Homo sapiens, UniProt P00734); test: Enzymatic assay for thrombin (fluorogenic peptide substrate Boc-VPR-AMC); assay type: biochemical
T2 construct: enzyme (human α-thrombin (BioPharm® Lab.)) in assay buffer; purchased BioPharm® Lab
Method in brief: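 Assay conditions kept the reaction linear in time, enzyme and substrate, so IC50 approximated Ki apart from tight- or slow-binding cases. Boc-VPR-AMC cleavage by human α-thrombin proceeded 20 min at room temperature in Hepes pH 7.4/NaCl/Tween 20 buffer, then was acid-quenched and read by fluorescence.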

T1 sequence (O00187 445-686 limits assumed): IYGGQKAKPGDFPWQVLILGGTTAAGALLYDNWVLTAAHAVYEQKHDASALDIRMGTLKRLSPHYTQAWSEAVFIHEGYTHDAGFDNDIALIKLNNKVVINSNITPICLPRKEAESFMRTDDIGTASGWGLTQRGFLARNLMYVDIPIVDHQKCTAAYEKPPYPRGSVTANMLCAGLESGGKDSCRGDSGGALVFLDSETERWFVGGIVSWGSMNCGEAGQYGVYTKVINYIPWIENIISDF
T1 sequence (O00187 287-444 partner limits assumed): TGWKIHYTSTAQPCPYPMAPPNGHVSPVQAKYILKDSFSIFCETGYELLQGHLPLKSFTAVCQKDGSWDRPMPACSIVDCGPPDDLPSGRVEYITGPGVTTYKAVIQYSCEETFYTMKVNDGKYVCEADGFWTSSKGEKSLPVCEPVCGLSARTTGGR

SMILES | Ki (MASP-2 (CCP1-CCP2-SP)) | Ki (human α-thrombin)
Cc1cc(C)cc(CNc2ncc3n(c2=O)[C@H](C(=O)NCc2ccc(N)nc2)CC3)c1 [Compound 87, (S)-N-((6-aminopyridin-3-yl)methyl)-3-((3,5-dimethylbenzyl)amino)-4-oxo-4,6,7,8-tetrahydropyrrolo[1,2-a]pyrazine-6-carboxamide] | < 500 nM | < 500 nM
Cc1cccc(CNc2nc(Cl)c3n(c2=O)[C@H](C(=O)NCc2cc4cnccc4[nH]2)CC3)c1C [Compound 15, (S)-N-((1H-pyrrolo[3,2-c]pyridin-2-yl)methyl)-1-chloro-3-((2,3-dimethylbenzyl)amino)-4-oxo-4,6,7,8-tetrahydropyrrolo[1,2-a]pyrazine-6-carboxamide] | < 500 nM | 2500 to 10000 nM
Cc1nc(N)ccc1CNC(=O)[C@@H]1CCc2cnc(NCc3ccccc3)c(=O)n21 [Compound 104, (S)-N-((6-amino-2-methylpyridin-3-yl)methyl)-3-(benzylamino)-4-oxo-4,6,7,8-tetrahydropyrrolo[1,2-a]pyrazine-6-carboxamide] | < 500 nM | < 500 nM
Cc1cc(CNc2ncc3n(c2=O)[C@H](C(=O)N[C@H](C)c2ccc(N)nc2)CC3)cc(C(F)(F)F)c1 [Compound 203, (S)-N-((R)-1-(6-aminopyridin-3-yl)ethyl)-3-((3-methyl-5-(trifluoromethyl)benzyl)amino)-4-oxo-4,6,7,8-tetrahydropyrrolo[1,2-a]pyrazine-6-carboxamide] | < 500 nM | 2500 to 10000 nM
COc1cc(C)cc(CNc2nc(Cl)c3n(c2=O)[C@H](C(=O)NCc2ccc(N)nc2C)CC3)c1 [Compound 8, (S)-N-((6-amino-2-methylpyridin-3-yl)methyl)-1-chloro-3-((3-methoxy-5-methylbenzyl)amino)-4-oxo-4,6,7,8-tetrahydropyrrolo[1,2-a]pyrazine-6-carboxamide] | < 500 nM | 500 to 2500 nM
Cc1ccccc1[C@@H](C)Nc1ncc2n(c1=O)[C@H](C(=O)NCc1ccc(N)nc1C)CC2 [Compound 82, (S)-N-((6-amino-2-methylpyridin-3-yl)methyl)-4-oxo-3-(((R)-1-(o-tolyl)ethyl)amino)-4,6,7,8-tetrahydropyrrolo[1,2-a]pyrazine-6-carboxamide] | < 500 nM | < 500 nM
C[C@H]1C[C@@H](C(=O)NCc2cc3cnccc3[nH]2)n2c1c(Cl)nc(NCc1ccccc1)c2=O [Compound 130, (6S,8S)—N-((1H-pyrrolo[3,2-c]pyridin-2-yl)methyl)-3-(benzylamino)-1-chloro-8-methyl-4-oxo-4,6,7,8-tetrahydropyrrolo[1,2-a]pyrazine-6-carboxamide] | < 500 nM | > 25000 nM
Cc1cc(C)cc(CNc2nc(Cl)c3n(c2=O)[C@H](C(=O)NCc2cc4c(s2)CNC4)CC3)c1 [Compound 31, (S)-1-chloro-N-((5,6-dihydro-4H-thieno[2,3-c]pyrrol-2-yl)methyl)-3-((3,5-dimethylbenzyl)amino)-4-oxo-4,6,7,8-tetrahydropyrrolo[1,2-a]pyrazine-6-carboxamide] | < 500 nM | 2500 to 10000 nM
O=C(NCc1cc2cnccc2[nH]1)[C@@H]1CCc2c(Cl)nc(NCCC(F)F)c(=O)n21 [Compound 19, (S)-N-((1H-pyrrolo[3,2-c]pyridin-2-yl)methyl)-1-chloro-3-((3,3-difluoropropyl)amino)-4-oxo-4,6,7,8-tetrahydropyrrolo[1,2-a]pyrazine-6-carboxamide] | < 500 nM | > 25000 nM
O=C(NCc1cc2c(s1)CNC2)[C@@H]1CC2(CC2)c2cnc(NCc3ccccc3)c(=O)n21 [Compound 127, (S)-3′-(benzylamino)-N-((5,6-dihydro-4H-thieno[2,3-c]pyrrol-2-yl)methyl)-4′-oxo-6′,7′-dihydro-4′H-spiro[cyclopropane-1,8′-pyrrolo[1,2-a]pyrazine]-6′-carboxamide trifluoroacetate] | < 500 nM | 2500 to 10000 nM
Cc1cccc(CNc2nc(Cl)c3n(c2=O)[C@H](C(=O)NCc2cc4c(s2)CNC4)CC3)c1C [Compound 33, (S)-1-chloro-N-((5,6-dihydro-4H-thieno[2,3-c]pyrrol-2-yl)methyl)-3-((2,3-dimethylbenzyl)amino)-4-oxo-4,6,7,8-tetrahydropyrrolo[1,2-a]pyrazine-6-carboxamide] | < 500 nM | 2500 to 10000 nM
Cc1cc(C)cc(CNc2ncc3n(c2=O)[C@H](C(=O)NCc2ccncc2)CC3)c1 [Compound 86, (S)-3-((3,5-dimethylbenzyl)amino)-4-oxo-N-(pyridin-4-ylmethyl)-4,6,7,8-tetrahydropyrrolo[1,2-a]pyrazine-6-carboxamide] | 500 to 2500 nM | > 25000 nM
Cc1cc(F)cc(CNc2ncc3n(c2=O)[C@H](C(=O)NCc2ccc(N)c(Cl)c2)CC3)c1 [Compound 188, (S)-N-(4-amino-3-chlorobenzyl)-3-((3-fluoro-5-methylbenzyl)amino)-4-oxo-4,6,7,8-tetrahydropyrrolo[1,2-a]pyrazine-6-carboxamide] | < 500 nM | < 500 nM
Cc1cccc(CNc2ncc3n(c2=O)[C@H](C(=O)NCc2ccc(N)nc2C)CC3)c1F [Compound 62, (S)-N-((6-amino-2-methylpyridin-3-yl)methyl)-3-((2-fluoro-3-methylbenzyl)amino)-4-oxo-4,6,7,8-tetrahydropyrrolo[1,2-a]pyrazine-6-carboxamide] | < 500 nM | < 500 nM
O=C(NCc1cc2cnccc2[nH]1)[C@@H]1CCc2c(Cl)nc(NCc3cccc(-c4ccccc4)c3)c(=O)n21 [Compound 143, (S)—N-((1H-pyrrolo[3,2-c]pyridin-2-yl)methyl)-3-(([1,1′-biphenyl]-3-ylmethyl)amino)-1-chloro-4-oxo-4,6,7,8-tetrahydropyrrolo[1,2-a]pyrazine-6-carboxamide] | < 500 nM | > 25000 nM
Cc1nc(N)ccc1CNC(=O)[C@@H]1CCc2cnc(NCc3cnn(-c4ccccc4)c3)c(=O)n21 [Compound 166, (S)—N-((6-amino-2-methylpyridin-3-yl)methyl)-4-oxo-3-(((1-phenyl-1h-pyrazol-4-yl)methyl)amino)-4,6,7,8-tetrahydropyrrolo[1,2-a]pyrazine-6-carboxamide trifluoroacetate] | < 500 nM | 500 to 2500 nM
CC[C@H]1C[C@@H](C(=O)NCc2ccc(N)nc2C)n2c1cnc(NCc1cc(C)cc(C)c1)c2=O [Compound 156, (6S,8S)-N-((6-amino-2-methylpyridin-3-yl)methyl)-3-((3,5-dimethylbenzyl)amino)-8-ethyl-4-oxo-4,6,7,8-tetrahydropyrrolo[1,2-a]pyrazine-6-carboxamide] | < 500 nM | < 500 nM

Further lines, results first:

Ki (MASP-2 (CCP1-CCP2-SP)) | Ki (human α-thrombin) | SMILES
< 500 nM | 500 to 2500 nM | Cc1ccc(C)c(CNc2ncc3n(c2=O)[C@H](C(=O)N[C@H](C)c2ccc(N)nc2C)CC3)c1 [Compound 237]
< 500 nM | < 500 nM | O=C(NCc1cc2c(s1)CNC2)[C@@H]1CCc2cnc(NC3(c4ccccc4)CCC3)c(=O)n21 [Compound 261, (S)-N-((5,6-dihydro-4H-thieno[2,3-c]pyrrol-2-yl)methyl)-4-oxo-3-((1-phenylcyclobutyl)amino)-4,6,7,8-tetrahydropyrrolo[1,2-a]pyrazine-6-carboxamide trifluoroacetate]
< 500 nM | 500 to 2500 nM | O=C(NCc1cc2c(s1)CNC2)[C@@H]1CCc2cnc(N[C@@H]3CCc4ccccc43)c(=O)n21 [Compound 254, (S)-3-(((R)-2,3-dihydro-1H-inden-1-yl)amino)-N-((5,6-dihydro-4H-thieno[2,3-c]pyrrol-2-yl)methyl)-4-oxo-4,6,7,8-tetrahydropyrrolo[1,2-a]pyrazine-6-carboxamide]
< 500 nM | > 25000 nM | Cc1cc(F)cc(CNc2nc(-c3cnn(C(F)F)c3)c3n(c2=O)[C@H](C(=O)NCc2ccc(N)nc2C)CC3)c1 [Compound 214, (S)—N-((6-amino-2-methylpyridin-3-yl)methyl)-1-(1-(difluoromethyl)-1H-pyrazol-4-yl)-3-((3-fluoro-5-methylbenzyl)amino)-4-oxo-4,6,7,8-tetrahydropyrrolo[1,2-a]pyrazine-6-carboxamide trifluoroacetate]
< 500 nM | < 500 nM | CCC[C@@H](Nc1ncc2n(c1=O)[C@H](C(=O)NCc1cc3c(s1)CNC3)CC2)c1ccccc1 [Compound 258]
< 500 nM | < 500 nM | Cc1cc(C)cc(CNc2ncc3n(c2=O)[C@H](C(=O)NCc2cc(Cl)ccc2-n2cnnn2)CC3)c1 [Compound 284, (S)-N-(5-chloro-2-(1H-tetrazol-1-yl)benzyl)-3-((3,5-dimethylbenzyl)amino)-4-oxo-4,6,7,8-tetrahydropyrrolo[1,2-a]pyrazine-6-carboxamide]
< 500 nM | < 500 nM | O=C(NCc1cc2cnccc2[nH]1)[C@@H]1CCc2cnc(NCCc3ccccc3)c(=O)n21 [Compound 248]
< 500 nM | < 500 nM | CC[C@@H](Nc1ncc2n(c1=O)[C@H](C(=O)NCc1cc3c(s1)CNC3)CC2)c1ccccc1C [Compound 265, (S)-N-((5,6-dihydro-4H-thieno[2,3-c]pyrrol-2-yl)methyl)-4-oxo-3-(((R)-1-(o-tolyl)propyl)amino)-4,6,7,8-tetrahydropyrrolo[1,2-a]pyrazine-6-carboxamide trifluoroacetate]
< 500 nM | > 25000 nM | O=C(NCc1cc2cnccc2[nH]1)[C@@H]1CC2(CC=CC2)c2c(Cl)nc(NCc3ccccc3)c(=O)n21 [Compound 233, (S)—N-((1H-pyrrolo[3,2-c]pyridin-2-yl)methyl)-3′-(benzylamino)-1′-chloro-4′-oxo-6′,7′-dihydro-4′H-spiro[cyclopentane-1,8′-pyrrolo[1,2-a]pyrazin]-3-ene-6′-carboxamide trifluoroacetate]
